Positions of bridges follow the written chain, without caps; N, C: chain ends. Non-standard residues stand in square brackets, D forms with d. Residues, ends and D or L forms follow the SMILES beside them. *: point of attachment. Phe(4-(4-pyridyl)) = N[C@@H](Cc1ccc(-c2ccncc2)cc1)C(=O)O; Phe(3-OCH2COOH) = N[C@@H](Cc1cccc(OCC(=O)O)c1)C(=O)O; Bip = N[C@@H](Cc1ccc(-c2ccccc2)cc1)C(=O)O; Gly(N(CH2)3COOH) = O=C(O)CCCNCC(=O)O; NMeF = CN[C@@H](Cc1ccccc1)C(=O)O; NMeD = CN[C@@H](CC(=O)O)C(=O)O; Carboxymethyl = O=C(O)C*; NMeA = CN[C@@H](C)C(=O)O; Sar = CNCC(=O)O
Experiments:
Type in all cases: cell-based
GDF-11 = molecular target: T1, GDF-11 (Homo sapiens, UniProt O95390); assay: Reporter gene assay for myostatin signaling in HepG2 cell line, Evaluation Procedure (1), GDF-11 inhibition; details: Method A: GDF-11 10 ng/mL; read-out: IC50 (Luciferase) GDF-11 HepG2
T1 construct: purchased R&D systems 1958-GD-G8/CF
T1 sequence (O95390 299-407): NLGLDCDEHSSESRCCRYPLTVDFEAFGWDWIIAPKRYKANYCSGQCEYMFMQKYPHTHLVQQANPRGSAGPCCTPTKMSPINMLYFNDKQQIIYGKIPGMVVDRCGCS
Summary of the method: (§1)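 IC50 derived from One-Glo luciferase luminescence after 20–24 h at 37 °C. Peptides titrated 4-fold at 0.006–100 nmol/L against myostatin or 0.12–2000 nmol/L against GDF-11 in HepG2 cells carrying a transfected CAGA12-luciferase reporter, kept in 0.1% BSA EMEM.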

Myostatin [1] = assay: Reporter gene assay for myostatin signaling in HepG2 cell line, Evaluation Procedure (1), myostatin inhibition; details: Method A; GDF-11 IC50 versus Myostatin IC50
Summary of the method: as §1

Myostatin [2] = molecular target: T2, Myostatin (Homo sapiens, UniProt O14793); assay: as above; details: Method A: Myostatin 10 ng/mL; read-out: IC50 (Luciferase) Myostatin HepG2
T2 construct: active myostatin (also called mature myostatin) is a homodimer consisting of two C-terminal growth factor domains; purchased R&D systems 788-G8/CF
T2 sequence (O14793 267-375): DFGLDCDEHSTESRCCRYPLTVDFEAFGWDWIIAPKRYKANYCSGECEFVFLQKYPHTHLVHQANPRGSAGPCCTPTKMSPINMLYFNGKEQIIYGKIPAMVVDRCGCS
Summary of the method: as §1

SMILES	IC50 (GDF-11)	IC50 (Myostatin [2])	Selectivity (Myostatin [1])
CC[C@H](C)[C@@H]1NC(=O)[C@H](Cc2ccccc2)N(C)C(=O)[C@H](Cc2ccc(O)cc2)NC(=O)[C@H](Cc2ccc(-c3ccncc3)cc2)NC(=O)[C@H](C)NC(=O)CN(CCCC(=O)O)C(=O)CSC[C@H](C(=O)O)NC(=O)[C@H](Cc2ccccc2)N(C)C(=O)[C@H](C)N(C)C(=O)[C@H](CC(C)C)NC(=O)[C@H](Cc2ccccc2)N(C)C(=O)[C@H](CCCNC(=N)N)NC(=O)[C@H](Cc2ccc(OCC(=O)O)cc2)NC(=O)[C@H](Cc2cccc(OCC(=O)O)c2)NC(=O)[C@H](C)N(C)C1=O [Myostatin_99_v83] ({CH2CO}-[Gly(N(CH2)3COOH)]A[Phe(4-(4-pyridyl))]Y[NMeF]I[NMeA][Phe(3-OCH2COOH)]Y(Carboxymethyl)R[NMeF]L[NMeA][NMeF][dC]-OH; thioether N-15)	3010 nM	20.9 nM	144
CC[C@H](C)[C@@H]1NC(=O)[C@H](Cc2ccccc2)N(C)C(=O)[C@H](Cc2ccc(O)cc2)NC(=O)[C@H](Cc2ccc(-c3ccccc3)cc2)NC(=O)[C@H](C)NC(=O)CN(CCCC(=O)O)C(=O)CSC[C@H](C(=O)O)NC(=O)[C@H](Cc2ccccc2)N(C)C(=O)[C@H](C)N(C)C(=O)[C@H](CC(C)C)NC(=O)[C@H](Cc2ccccc2)N(C)C(=O)[C@H](CCCNC(=N)N)NC(=O)[C@H](Cc2ccc(OCC(=O)O)cc2)NC(=O)[C@H](Cc2cccc(OCC(=O)O)c2)NC(=O)[C@H](C)N(C)C1=O [Myostatin_99_v85] ({CH2CO}-[Gly(N(CH2)3COOH)]A[Bip]Y[NMeF]I[NMeA][Phe(3-OCH2COOH)]Y(Carboxymethyl)R[NMeF]L[NMeA][NMeF][dC]-OH; thioether N-15)	3370 nM	13.5 nM	250
CC[C@H](C)[C@@H]1NC(=O)[C@H](Cc2ccccc2)N(C)C(=O)[C@H](Cc2ccc(O)cc2)NC(=O)[C@H](Cc2ccc(-c3ccncc3)cc2)NC(=O)CNC(=O)CN(CCCC(=O)O)C(=O)CSC[C@H](C(=O)O)NC(=O)[C@H](Cc2ccccc2)N(C)C(=O)[C@H](C)N(C)C(=O)[C@H](CC(C)C)NC(=O)[C@H](Cc2ccccc2)N(C)C(=O)[C@H](CCCNC(=N)N)NC(=O)[C@H](Cc2ccc(OCC(=O)O)cc2)NC(=O)[C@H](Cc2cccc(OCC(=O)O)c2)NC(=O)CN(C)C1=O [Myostatin_99_v92] ({CH2CO}-[Gly(N(CH2)3COOH)]G[Phe(4-(4-pyridyl))]Y[NMeF]I[Sar][Phe(3-OCH2COOH)]Y(Carboxymethyl)R[NMeF]L[NMeA][NMeF][dC]-OH; thioether N-15)	3880 nM	78.1 nM	50
CC[C@H](C)[C@@H]1NC(=O)[C@H](Cc2ccccc2)N(C)C(=O)[C@H](Cc2ccc(O)cc2)NC(=O)[C@H](Cc2ccc(-c3ccncc3)cc2)NC(=O)[C@H](C)NC(=O)[C@H](C)NC(=O)CSC[C@H](C(=O)O)NC(=O)[C@H](Cc2ccccc2)N(C)C(=O)[C@H](C)N(C)C(=O)[C@H](CC(C)C)NC(=O)[C@H](Cc2ccccc2)N(C)C(=O)[C@H](CCCNC(=N)N)NC(=O)[C@H](Cc2ccc(OCC(=O)O)cc2)NC(=O)[C@H](Cc2cccc(OCC(=O)O)c2)NC(=O)CN(C)C1=O [Myostatin_99_v107] ({CH2CO}-AA[Phe(4-(4-pyridyl))]Y[NMeF]I[Sar][Phe(3-OCH2COOH)]Y(Carboxymethyl)R[NMeF]L[NMeA][NMeF][dC]-OH; thioether N-15)	466 nM	2.8 nM	166
CC[C@H](C)[C@@H]1NC(=O)[C@H](Cc2ccccc2)N(C)C(=O)[C@H](Cc2ccc(O)cc2)NC(=O)[C@H](Cc2ccc(-c3ccccc3)cc2)NC(=O)[C@H](C)NC(=O)[C@H](C)NC(=O)CSC[C@H](C(=O)O)NC(=O)[C@H](Cc2ccccc2)N(C)C(=O)[C@H](C)N(C)C(=O)[C@H](CC(C)C)NC(=O)[C@H](Cc2ccccc2)N(C)C(=O)[C@H](CCCNC(=N)N)NC(=O)[C@H](Cc2ccc(OCC(=O)O)cc2)NC(=O)[C@H](Cc2cccc(OCC(=O)O)c2)NC(=O)CN(C)C1=O [Myostatin_99_v108] ({CH2CO}-AA[Bip]Y[NMeF]I[Sar][Phe(3-OCH2COOH)]Y(Carboxymethyl)R[NMeF]L[NMeA][NMeF][dC]-OH; thioether N-15)	374 nM	3.6 nM	104

Further lines, with some results ahead:

IC50 (GDF-11)	IC50 (Myostatin [2])	SMILES	Selectivity (Myostatin [1])
3050 nM	27.3 nM	CC[C@H](C)[C@@H]1NC(=O)[C@H](Cc2ccccc2)N(C)C(=O)[C@H](Cc2ccc(O)cc2)NC(=O)[C@H](Cc2ccc(-c3ccncc3)cc2)NC(=O)[C@H](C)NC(=O)CN(CCCC(=O)O)C(=O)CSC[C@H](C(=O)O)NC(=O)[C@H](Cc2ccccc2)N(C)C(=O)[C@H](C)N(C)C(=O)[C@H](CC(C)C)NC(=O)[C@H](Cc2ccccc2)N(C)C(=O)[C@H](CCCNC(=N)N)NC(=O)[C@H](Cc2ccc(OCC(=O)O)cc2)NC(=O)[C@H](Cc2cccc(OCC(=O)O)c2)NC(=O)CN(C)C1=O [Myostatin_99_v84] ({CH2CO}-[Gly(N(CH2)3COOH)]A[Phe(4-(4-pyridyl))]Y[NMeF]I[Sar][Phe(3-OCH2COOH)]Y(Carboxymethyl)R[NMeF]L[NMeA][NMeF][dC]-OH; thioether N-15)	112
1650 nM	10.4 nM	CC[C@H](C)[C@@H]1NC(=O)[C@H](Cc2ccccc2)N(C)C(=O)[C@H](Cc2ccc(O)cc2)NC(=O)[C@H](Cc2ccc(-c3ccccc3)cc2)NC(=O)[C@H](C)NC(=O)CN(CCCC(=O)O)C(=O)CSC[C@H](C(=O)O)NC(=O)[C@H](Cc2ccccc2)N(C)C(=O)[C@H](C)N(C)C(=O)[C@H](CC(C)C)NC(=O)[C@H](Cc2ccccc2)N(C)C(=O)[C@H](CCCNC(=N)N)NC(=O)[C@H](Cc2ccc(OCC(=O)O)cc2)NC(=O)[C@H](Cc2cccc(OCC(=O)O)c2)NC(=O)CN(C)C1=O [Myostatin_99_v86] ({CH2CO}-[Gly(N(CH2)3COOH)]A[Bip]Y[NMeF]I[Sar][Phe(3-OCH2COOH)]Y(Carboxymethyl)R[NMeF]L[NMeA][NMeF][dC]-OH; thioether N-15)	159
7380 nM	72.3 nM	CC[C@H](C)[C@@H]1NC(=O)[C@H](Cc2ccccc2)N(C)C(=O)[C@H](Cc2ccc(O)cc2)NC(=O)[C@H](Cc2ccc(-c3ccncc3)cc2)NC(=O)CNC(=O)CN(CCCC(=O)O)C(=O)CSC[C@H](C(=O)O)NC(=O)[C@H](Cc2ccccc2)N(C)C(=O)[C@H](C)N(C)C(=O)[C@H](CC(C)C)NC(=O)[C@H](Cc2ccccc2)N(C)C(=O)[C@H](CCCNC(=N)N)NC(=O)[C@H](Cc2ccc(OCC(=O)O)cc2)NC(=O)[C@H](Cc2cccc(OCC(=O)O)c2)NC(=O)[C@H](C)N(C)C1=O [Myostatin_99_v91] ({CH2CO}-[Gly(N(CH2)3COOH)]G[Phe(4-(4-pyridyl))]Y[NMeF]I[NMeA][Phe(3-OCH2COOH)]Y(Carboxymethyl)R[NMeF]L[NMeA][NMeF][dC]-OH; thioether N-15)	102
26300 nM	88.8 nM	CC[C@H](C)[C@@H]1NC(=O)[C@H](Cc2ccccc2)N(C)C(=O)[C@H](Cc2ccc(O)cc2)NC(=O)[C@H](Cc2ccc(-c3ccncc3)cc2)NC(=O)[C@H](C)NC(=O)[C@H](CC(=O)O)N(C)C(=O)CSC[C@H](C(=O)O)NC(=O)[C@H](Cc2ccccc2)N(C)C(=O)[C@H](C)N(C)C(=O)[C@H](CC(C)C)NC(=O)[C@H](Cc2ccccc2)N(C)C(=O)[C@H](CCCNC(=N)N)NC(=O)[C@H](Cc2ccc(OCC(=O)O)cc2)NC(=O)[C@H](Cc2cccc(OCC(=O)O)c2)NC(=O)CN(C)C1=O [Myostatin_99_v96] ({CH2CO}-[NMeD]A[Phe(4-(4-pyridyl))]Y[NMeF]I[Sar][Phe(3-OCH2COOH)]Y(Carboxymethyl)R[NMeF]L[NMeA][NMeF][dC]-OH; thioether N-15)	296

— patent publication EP4786487A1, “PEPTIDE” (Peptidream Inc, priority 2023, dated 2025)
